Paper PMC8121805, “Discovery of first-in-class inhibitors of ASH1L histone methyltransferase with anti-leukemic activity” (Nature Communications, 2021)
Where “and” joins values, the source holds several entries; their conditions need not be identical. Equal values may be shown once.

Columns and labels:
Assay type in all cases: cell-based, human
MOLM13 cells = assay: MTT cell viability assay; settings: MTT, 7 days
Experimental: (§1) FBS and 1% penicillin/streptomycin. […] Media was changed on day 3 or 4 and compounds were resupplied. […] Cell suspensions (100 μL) were transferred to the 96-well plates for each sample in quadruplicate at the time of media change. At day 7, 10 µL of MTT reagent (M6494, Molecular Probes™) was added to each well of the 96 well plate and incubated at 37 °C for 4 h. The formazan was then solubilized by adding 100 µL acidified 10% SDS solution and incubated at 37 °C overnight. Plates were read for absorbance at 570 nm using a PHERAstar BMG microplate reader. The experiments were performed two times in quadruplicates with calculation of mean and SD for each condition. Data were analyzed in Prism 8.0.0 to obtain GI50 values.
(§2) Supplementary Figure 7. […] (a)
(§3) Titration curves from the MTT cell viability assay performed after 4, 7, and 11 (or 10) days of
(§4) Titration curves from the MTT cell viability assay performed after 7 days of treatment of KOPN8 ,
(§5) MOLM13 and MV4;11 cell lines harboring MLL1 translocation (MLL1-r) or K562 cell line (non-
(§6) Representative graphs are shown
(§7) from two independent MTT experiments performed for each cell line.

MV4;11 cells [1] = assay: MTT cell viability assay; settings: MTT, 7 days
Experimental: as §1, §2, §3, §4, §5, §6, §7

RS4;11 cells = assay: MTT cell viability assay; settings: 7 days
Experimental: (§8) Human leukemia cells K562, MV4;11 and RS4;11 (purchased from ATCC) and KOPN8, MOLM13 (purchased from DSMZ) were cultured in RPMI 1640 (Invitrogen) supplemented with 10% heat inactivated (h.i.) FBS and 1% penicillin/streptomycin (Invitrogen). SET2 cells (purchased from DSMZ) were cultured in RPMI 1640 supplemented with 20% h.i. FBS and 1% penicillin/streptomycin. Cells were plated at 1 × 10^5 to 2 × 10^5 cells/mL depending on cell line and treated with 0.25% DMSO or varying concentrations of compounds and incubated at 37 °C, 5% CO2 incubator for 7 days. Media was changed on day 3 or 4 and compounds were resupplied. […] Cell suspensions (100 μL) were transferred to the 96-well plates for each sample in quadruplicate at the time of media change. At day 7, 10 µL of MTT reagent (M6494, Molecular Probes™) was added to each well of the 96 well plate and incubated at 37 °C for 4 h. The formazan was then solubilized by adding 100 µL acidified 10% SDS solution and incubated at 37 °C overnight. Plates were read for absorbance at 570 nm using a PHERAstar BMG microplate reader. The experiments were performed two times in quadruplicates with calculation of mean and SD for each condition. Data were analyzed in Prism 8.0.0 to obtain GI50 values.

SET2 cells = assay: MTT cell viability assay
Experimental: as §8

KOPN8 cells = assay: Flow cytometry of CD11B expression (differentiation); settings: 7 days
Experimental: (§9) In addition, 1 × 10^5 cells per sample were stained with Zombie Aqua™ dye (1:100 dilution) for 15 min using the Zombie Aqua™ Fixable Viability Kit (Zombie Aqua™ Fixable Viability Kit, Biolegend®) […] and then for 30 min with an anti-CD11B-PE antibody (982606, ICRF44, Biolegend®) or anti-CD11B-Pacific Blue (101224, BD BioLegend) antibody at 1:50 dilution, according to the No-wash Sequential Staining Protocol described by the manufacturer (BioLegend, Zombie Aqua Fixable Viability Kit). Cells were washed twice with 500 µL PBS containing 1% FBS and resuspended in 200 µL PBS with 1% FBS.

MV4;11 cells [2] = assay: as above; settings: for MV4;11 % CD11B+ cells: 7 days
Experimental: as §9

MV4;11 cells [3] = assay: Annexin V apoptosis assay (flow cytometry); settings: for MV4;11 % Annexin V/PI+ cells: 7 days
[4] = test system: MLL leukemia cells (MV4;11, MOLM13, KOPN8, RS4;11); assay: MTT cell viability assay, MLL leukemia cells as a group; settings: Homo sapiens, MLL leukemia cells
Experimental: as §8
Supplementary Figure 4. Cell viability assay for AS-6 in MLL leukemia cell lines. Titration curves from the MTT cell viability assay performed after 7 days of treatment of human MLL1- […]
replicates. Representative graphs are shown from two independent MTT experiments performed […]
as §2
Titration curves from the MTT cell viability assay performed after 4, 7, and 11 (or 10) days of […]
Titration curves from the MTT cell viability assay performed after 7 days of treatment of KOPN8 , MOLM13 and MV4;11 cell lines harboring MLL1 translocation (MLL1-r) or K562 cell line (non- […]
Representative graphs are shown from two independent MTT experiments performed for each cell line. GI50 values correspond to […]

SMILES: CN1CC(C(=O)NCc2ccc3c(-c4cccc(C(N)=S)c4)cn(C4CCN(S(=O)(=O)C(F)(F)F)CC4)c3c2)C1 [AS-99]
- GI50 (MOLM13 cells; Homo sapiens, MOLM-13, 168 h, MOLM13 (MLL1-r)): 3.6 ± 0.3 µM
- % activity MOLM-13 (MOLM13 cells; log[compound] -4.92082): 3.13% and 3.054% and 2.978%
- % activity MOLM-13 (MOLM13 cells; log[compound] -5.22185): 1.145% and 1.069% and 1.222%
- % activity MOLM-13 (MOLM13 cells; log[compound] -5.52288): 67.0357% and 69.5553% and 72.2275% and 71.6931%
- % activity MOLM-13 (MOLM13 cells; log[compound] -5.82391): 99.1792% and 96.2016% and 97.7286% and 103.76%
- % activity MOLM-13 (MOLM13 cells; log[compound] -6.12494): 111.472% and 117.274% and 111.243% and 116.205%
- % activity MOLM-13 (MOLM13 cells; log[compound] -6.42597): 98.5684% and 93.0712% and 98.6448% and 96.736%
- GI50 (MV4;11 cells [1]; Homo sapiens, 168 h, MV4;11 (MLL1-r)): 1.8 ± 0.2 µM
- % activity MV4;11 (MV4;11 cells [1]; log[compound] -4.92082): 1.588% and 2.029%
- % activity MV4;11 (MV4;11 cells [1]; log[compound] -5.22185): 0.6174% and 0.7056% and 0.9702%
- % activity MV4;11 (MV4;11 cells [1]; log[compound] -5.52288): 22.9327% and 24.6086% and 18.5226% and 19.2282%
- % activity MV4;11 (MV4;11 cells [1]; log[compound] -5.82391): 65.4465% and 63.065% and 69.151% and 68.269%
- % activity MV4;11 (MV4;11 cells [1]; log[compound] -6.12494): 88.9085% and 99.8456% and 101.963% and 98.4344%
- % activity MV4;11 (MV4;11 cells [1]; log[compound] -6.42597): 97.7288% and 98.9636% and 100.639% and 102.668%
- % activity RS4;11 (RS4;11 cells; log[compound] -4.92082): 2.655% and 2.343% and 2.187%
- % activity RS4;11 (RS4;11 cells; log[compound] -5.22185): 2.03% and 1.718% and 1.874% and 2.655%
- % activity RS4;11 (RS4;11 cells; log[compound] -5.52288): 64.3499% and 67.786% and 71.3784%
- % activity RS4;11 (RS4;11 cells; log[compound] -5.82391): 99.4924% and 89.8087% and 86.9973% and 90.4334%
- % activity RS4;11 (RS4;11 cells; log[compound] -6.12494): 82.4678% and 84.9668% and 84.4982% and 89.3401%
- % activity RS4;11 (RS4;11 cells; log[compound] -6.42597): 93.2448% and 101.679% and 103.397%
- GI50 (RS4;11 cells; Homo sapiens, 168 h, RS4;11 (MLL1-r)): 3.4 ± 0.1 µM
- GI50 (SET2 cells; Homo sapiens, SET-2, 168 h, SET2 (non MLL1-r), MTT, 7 days): > 12 µM
- % activity SET2 (SET2 cells; MTT, 7 days, log[compound] -4.92082): 96.0299% and 95.2049% and 87.6257% and 88.1928%
- % activity SET2 (SET2 cells; MTT, 7 days, log[compound] -5.22185): 99.0204% and 97.9376% and 92.5754% and 93.5035%
- % activity SET2 (SET2 cells; MTT, 7 days, log[compound] -5.52288): 97.5767% and 104.589% and 99.7938% and 98.0407%
- % activity SET2 (SET2 cells; MTT, 7 days, log[compound] -5.82391): 91.6473% and 94.4831% and 88.9662% and 87.9866%
- % activity SET2 (SET2 cells; MTT, 7 days, log[compound] -6.12494): 83.7071% and 89.6365% and 81.1807% and 83.8618%
- % activity SET2 (SET2 cells; MTT, 7 days, log[compound] -6.42597): 83.5525% and 88.76% and 84.5321% and 85.1508%
- % activity SET2 (SET2 cells; MTT, 7 days, log[compound] -6.727): 86.1304% and 85.9242% and 90.513% and 87.1101%
- effect on proliferation of SET2 cells (SET2 cells; leukemia cells without MLL1 translocations): no or limited effects at 10 µM or higher concentrations
- KOPN8 % CD11B+ cells (KOPN8 cells; 1 uM): 5.69% and 3.82% and 3.42%
- KOPN8 % CD11B+ cells (KOPN8 cells; 2 uM): 7.78% and 8.76% and 7.98%
- KOPN8 % CD11B+ cells (KOPN8 cells; 3 uM): 12.9% and 10.3% and 9.53%
- KOPN8 % CD11B+ cells (KOPN8 cells; 4 uM): 24.5% and 25.6%
- MV4;11 % CD11B+ cells (MV4;11 cells [2]; 3 uM): 3.77% and 4.48% and 6.27%
- MV4;11 % CD11B+ cells (MV4;11 cells [2]; 6 uM): 35.3% and 55.8% and 53.8%
- differentiation in MLL leukemia cells (MV4;11 cells [2]; MV4;11 and KOPN8): induced differentiation
- increased expression of the CD11B differentiation marker (MV4;11 cells [2]; MV4;11 and KOPN8): up to 50%
- MV4;11 % Annexin V/PI+ cells (MV4;11 cells [3]; 3 uM): 5.84% and 5.81% and 5.56%
- MV4;11 % Annexin V/PI+ cells (MV4;11 cells [3]; 4.5 uM): 21.9% and 12.8%
- apoptosis in the MLL leukemia cells (Annexin V positive cells) (MV4;11 cells [3]; MV4;11 and KOPN8): induced apoptosis
- GI50 [4]: 1.8 to 3.6 µM
